Here are results for one substance from patent US11117918B2, “Enzyme-directed immunostimulant and uses thereof” (Washington State University, priority 2016, dated 2021).

Test [1] relates to RAW-Blue cells. The experiment in a line: RAW-Blue colorimetric assay (NF-κB transcription). The class given is cell-based. The protocol: Measurement of RAW-Blue cell activation was performed similarly to manufacturer instructions. For the NF-κB assay, 1×10^5 RAW-Blue cells were seeded in an optically clear bottomed 96-well plate in 180 μL of complete assay media (identical to B16 media) at a density of 1×10^5 cells/well. For co-culture experiments with RAW-Blue and B16 or β-galactosidase-enriched B16 cells, RAW-Blue cells were seeded at a density of 1×10^5 cells/well and were allowed to adhere for 4 h before the addition of the B16 cells, which were seeded at a density of 1×10^5 cells/well. For co-culture experiments with RAW-Blue and β-galactosidase-enriched B16 cells, RAW-Blue cells were seeded at a density of 1×10^5 cells/well and were allowed to adhere for 4 h before the addition off β-galactosidase-enriched B16 cells, which were seeded at a density of 1×10^5 cells/well.
For experiments with β-gal, a stock solution (500 U/mL, where 1 U=1 μmol/min) was used. A final enzymatic activity of 1 U/well was achieved by addition of 2 μL of the 500 U/mL stock solution to each well. Imiquimod or (6) were prepared as 1.15 and 1.49 mg/mL stock solutions, respectively, in DMSO, and were added to the appropriate wells to achieve the specified final concentrations in each experiment ranging from 0.1 to 10 μM. […] The PNPP assays were incubated for 3 h (37° C., 5% CO2), and the absorbance was measured at 405 nm. […]

Test [2] concerns JAWSII cells. Briefly: JAWSII ELISA cytokine production (TNF, IL-6, IL-12). The format is cell-based, murine. Here is the method:
Measurement of JAWSII cytokine production was performed similarly to manufacturer instructions. The cytokines analyzed were IL-12, IL-6, and TNF. For the cytokine assays, 1×10^5 JAWSII cells were seeded in an optically clear bottomed 6-well plate in 1 mL of complete assay media (identical to JAWSII growth media) for a density of 1×10^5 cells/well. Cells were incubated for 42 h. For co-culture experiments with JAWSII and B16 or β-galactosidase-enriched B16 cells, JAWSII cells were seeded at a density of 1×10^5 cells/well and allowed to adhere for 42 h before the addition of B16 cells, which were seeded at a density of 1×10^5 cells/well. For co-culture experiments with JAWSII and β-galactosidase-enriched B16 cells, JAWSII cells were seeded at a density of 1×10^5 cells/well and allowed to adhere for 42 h before the addition of β-galactosidase-enriched B16 cells, which were seeded at a density of 1×10^5 cells/well.
For experiments with β-gal, a stock solution (500 U/mL, where 1 U=1 μmol/min) was used. A final enzymatic activity of 1 U/well was achieved by addition of 2 μL of the 500 U/mL stock solution to each well. Stock solutions of Imiquimod or (6) in DMSO (1.15 and 1.49 mg/mL, respectively) were then added to the appropriate wells to achieve a final concentration of 5 μM. The cells were incubated for 16 h (37° C., 5% CO2) before supernatant was collected. Cells were pelletized (200 RCF, 10 min) and removed. Supernatant was analyzed for cytokines without further dilution according to manufacturer instructions for ELISA. Absorbance was analyzed at 450 nm and standard curves were used to determine absolute cytokine concentrations.
A general note: In an ELISA, binding on a coated surface is turned into a signal by an enzyme label.

Test [3] has as its system AT3B-1 prostate cancer cell line (overexpresses P-glycoprotein 1). Briefly: AT3B-1 cells treated with pro-immunostimulant, absorbance at 420 nm. The format is cell-based, rat. As to conditions: 10 mM dose, 2−200×10^4 cells/well, 72 h. Here is the method:
To evaluate the disclosed compounds for their effect against multidrug-resistant cells and possible pathogen infection, compound 6 was exposed to a multidrug-resistant AT3B-1 prostate cancer cell line that is known to overexpress P-glycoprotein 1 (P-gp). AT3B-1 cells were plated in an optically clear bottomed 96-well plate at a range of densities (2−200×10^4 cells/well) in 180 μL of complete cell media. Each cell density was tested in triplicate with and without a 10 mM dose of compound 6. For wells with compound 6, 20 μL of a 100 mM stock solution of compound 6 in DMSO was used. As a control experiment, compound 6 was converted by exogenous α-Mannosidase (0.1 U/mL) in triplicate. The plate was incubated (37° C., 5% CO2) for 72 h before measuring the absorbance at 420 nm.
The AT3B-1 cell line (ATCC CRL-2375, rat prostate epithelial malignant carcinoma) were grown in complete culture media composed of Roswell Park Memorial Institute (RPMI) 1640 medium with 4.5 g/L glucose, 2 mM L-glutamine, 10,000 U/mL penstrep, 10 mM HEPES and supplemented with 10% HI-FBS and 1 μM doxorubicin. Media was changed every 3-4 days omitting the doxorubicin, and cells were passaged once per week. Passaging involved changing media, counting, and seeding 3×10^5 cells in 35 mL of new complete media in a new T-175 culture flask.

On to “4-Imiquimod-2-nitrophenyl-galactopyranoside [compound 6]”, for which, in test [1] (co-cultures of β-galactosidase-enriched B16 cells and RAW-Blue cells, relative to unaltered B16 co-cultures or RAW-Blue cells alone), the NF-κB transcription entry is given as “enhanced”. The RAW-Blue cell activity entry in test [1] (compound alone, relative to compound with 1 U β-galactosidase or Imiquimod, 16 h) is “abrogated”. Moreover, the “pro-inflammatory cytokine production (TNF, IL-6, IL-12)” value in test [2] (5 μm, without β-galactosidase) is listed as “not induce significant pro-inflammatory cytokine production”. Further, in test [2] (co-cultures of JAWSII and β-galactosidase-enriched B16 melanoma cells), the pro-inflammatory cytokine production entry is “resulted in the production of pro-inflammatory cytokines”. In addition, in test [2] (with exogenous β-galactosidase, equimolar Imiquimod), the “cytokine production relative to Imiquimod, all three cytokines (TNF, IL-6, IL-12)” value is listed as above 80%. Moreover, the “interaction with P-gp” value in test [3] is listed as “interacting with P-gp”.
